# Results from patent US6309825A, “Analytical and therapeutic agents” (University of Leicester, priority 1995, dated 2001).
# What was measured:
# avidin [1] = biological target: T1, avidin (Gallus gallus, UniProt P02701); assay: Enzyme-linked avidin binding assay, competition experiments; details: competitor 10 μM, co-incubation, avidin-HRP, paraformaldehyde-fixed DNA
# T1 construct: mature chain without signal peptide
# Method: Treatment of DNA with methylene blue leads to the oxidation of deoxyguanosine residues to 8-oxodeoxyguanosine. DNA (0.5 mg/ml in water) was incubated in the presence of methylene blue (20 μg/ml final concentration in 0.1 M tris, pH 8.5) in a petri dish on ice shielded from a white light source by 0.5 cm water in an upturned petri dish lid (light source to DNA distance was 3 cm). Irradiation was for 3 hours at which time solid sodium chloride was added to a final concentration of 1 M and the DNA precipitated with ethanol. The DNA was removed and dissolved in de-ionized water. The DNA was re-precipitated and washed twice more to remove any remaining methylene blue.
# Avidin-horse radish peroxidase (avidin-HRP) (Sigma) binding to methylene blue-treated DNA was compared to its binding to untreated DNA. Treatment of DNA with methylene blue leads to the generation of oxidised base products including 8-oxodeoxyguanosine. Competition experiments were carried out to define the specificity of binding of avidin to DNA. Damaged and native DNA bind to ELISA plates and in initial experiments, native and methylene blue-treated double-stranded and single-stranded DNA were bound to ELISA plates (Immuno plate MAXISORP (RTM), Nunc) at 50 μg/ml in PBS (50 μl/well). However since it is difficult to quantify the amount of DNA remaining after the various procedures, Millipore MULTISCREEN (RTM)filtration plates were used in this experiment. Native and methylene blue-treated double-stranded and single-stranded DNA ([…] in water) was added to appropriate wells ([…]) of MULTISCREEN-HV 96-well plates. […] Following washing with PBS 3 times, detection of bound peroxidase-labelled avidin was performed using 50 μl/well of o-phenylenediamine (0.5 mg/ml in 0.05 M phosphate-citrate, pH 5.0, and containing 0.03% w/v sodium perborate as a substitute for H2 O2) as substrate; the reaction was stopped after 20 minutes at room temperature using 2M […] (25 μl/well) and the product determined spectrophotometrically at 492 nm. […]
# IMR 32 cells [2] = assay: cells
# Method: After differentiation, media was carefully aspirated and prewarmed Hanks buffered salt solution (HBSS) added to each well (200 μl) with or without various concentrations of freshly prepared hydrogen peroxide. The cultures were incubated with hydrogen peroxide for 1 hour after which the HBSS was replaced with fresh media (α-MEM with 5% (v/v) HIFCS and 1% (v/v) non-essential amino acids) and allowed to recover for 24 hours under standard incubation conditions before cell death was assessed using the MTT assay and binding of avidin assessed by fluorescence analysis.
# Cells were prefixed by the addition of 2% (w/v) paraformaldehyde (in phosphate buffered saline (PBS) at pH 7.4) for 15 mins after washing the cells with PBS. Cells were washed in warm PBS. Cultures were fixed and permeabilised with ice-cold methanol for 15 minutes, rehydrated in PBS before blocking with PBS containing 10% (w/v) normal goat serum (NGS). The blocking solution was washed off with PBS containing 0.2% (w/v) NGS.
# avidin [3] = biological target: T1, avidin; assay: Capillary electrophoresis analysis of binding
# Method: Capillary electrophoresis was performed using a Beckman […].) controlled by accompanying System Gold (RTM) software. All analyses were carried out using an untreated fused silica capillary of 57 cm total length and 75 μm internal diameter. […] Samples were then placed on ice until analysed by CE. The electrophoresis solution was 10 mM sodium tetraborate (pH 9.3) filtered through a 0.45 μm filter. Samples were loaded using positive pressure (nominal 0.5 psi) for 5 seconds at 25° C. The run time was 10 minutes under an applied voltage of 30 kV with a rise time of 0.17 minutes (approx. 10.2 seconds). Detection was by absorbence at 200 nm and comparison with known standards. Concentration of each compound was estimated from peak height.
# avidin [4] = biological target: T1, avidin; assay: Inhibition of avidin binding to hydrogen peroxide treated cells; details: avidin conjugate preincubated with competitor; all at 100 μM (biotin 10 μM)
# Method: Cells were washed in warm PBS. Cultures were fixed and permeabilised with ice-cold methanol for 15 minutes, rehydrated in PBS before blocking with PBS containing 10% (w/v) normal goat serum (NGS). […] The control, PBS in the absence of competitor, was treated in parallel. […] Fixed cells were incubated with the solutions for 1 hour in the dark at room temperature. The slides were washed three times in PBS before coverslips were mounted on the slides using VECTORSHIELD (RTM) (Vector Laboratories, Peterborough, U.K.), a glycerol-based anti-bleaching mountant.
# avidin [5] = biological target: T1, avidin; assay: Fluorescent binding assay (FBA) with avidin-FITCS; details: for concentration at which avidin binding reached a maximum: base bound to a substratum of fixed cells, avidin-FITCS
# Method: (§1) Cultures of IMR 32 cells were grown in 96-well plates as described above and allowed to differentiate. Untreated cultures were fixed and permeabilised as above to provide a substrate to which 8-oxodeoxyguanosinewould bind thus permitting FAAs to be performed. Various concentrations of either the normal or the oxidised base were incubated on these plates (100 μl/well) for 1 hour. The ELISA plates were then washed 3 times with PBS before visualising bound base with either avidin-conjugated FITCS (1:200 in PBS for 1 hour) or with a FITCS-conjugated anti-biotin monoclonal antibody (1:80 in PBS for 1 hour). The level of binding was quantified with a fluorescence plate reader (Denley, Billingshurst, U.K.), excitation 485 nm and emission 535 nm.
# [6] = test system: monoclonal antibody to biotin; assay: Fluorescent binding assay (FBA) with FITCS-conjugated anti-biotin monoclonal antibody; parameters: species or system goat; details: base bound to a substratum of fixed cells
# Method: Avidin-FITCS conjugate was from Sigma (A 2050), as was monoclonal, goat anti-biotin-FITCS conjugate antibody (clone number BN-34) (F4024).
# as §1
# IMR 32 cells [7] = assay: UVA exposure with α-tocopherol preincubation, fluorescent assessment of avidin binding; format: cell-based; details: 200 μM preincubation
# Method: (§2) Differentiated cells were exposed to UVA irradiation with or without preincubation with the lipid-phase antioxidant α-tocopherol. The level of UVA irradiation was monitored in each experiment with a radiometer. Antioxidant was added to the existing medium 24 hours prior to irradiation at a final concentration of 200 μM (stock made up immediately prior to use in ethanol). […] Medium was removed prior to irradiation and cells washed in HBSS. The cells were irradiated from above at room temperature. Controls were sham irradiated. The cells were fixed as described below.
# Cells were washed in warm PBS. Cultures were fixed and permeabilised with ice-cold methanol for 15 minutes, rehydrated in PBS before blocking with PBS containing 10% (w/v) normal goat serum (NGS). […] DNA damage was visualised with avidin-conjugated fluorescein isothiocyanate (FITCS) (1:200 in PBS for 1 hour) or with a FITCS-conjugated anti-biotin monoclonal antibody (1:80 in PBS for 1 hour) for either fluorescence microscopy or for quantitative assessment with a fluorescence plate reader (Denley, Billingshurst, U.K.).
# IMR 32 cells [8] = assay: MTT assay after UVA exposure; format: cell-based; details: α-tocopherol pre-incubation, 24 hours post-irradiation
# Method: as §2
# T1 sequence (P02701 25-152): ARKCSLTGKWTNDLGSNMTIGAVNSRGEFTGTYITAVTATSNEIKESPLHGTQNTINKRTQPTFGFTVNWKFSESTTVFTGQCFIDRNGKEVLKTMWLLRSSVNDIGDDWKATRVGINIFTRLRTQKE
smiles,measurement,setting,value
Nc1nc2c(ncn2[C@@H]2O[C@H](CO)[C@@H](O)[C@H]2O)c(=O)[nH]1 [guanosine],"inhibition of avidin binding to double-stranded, methylene blue treated DNA",avidin [1],inhibited binding
OO [hydrogen peroxide],hydrogen peroxide concentration at which the level of avidin binding plateaued,"IMR 32 cells [2]; 1 hour exposure, 24 hours recovery",100 nM
same,minimal effective concentration,"IMR 32 cells [2]; Homo sapiens, IMR-32, 1 h, read-out: hydrogen peroxide concentration at which avidin binding was statistically different from control",0.01 µM
Nc1nc2[nH]c(=O)[nH]c2c(=O)[nH]1 [8-oxoguanine],rate of binding to avidin,"avidin [3]; purely chemical system, minimal preincubation",extremely rapid
Nc1nc2c([nH]c(=O)n2[C@H]2C[C@H](O)[C@@H](CO)O2)c(=O)[nH]1 [8-oxodeoxyguanosine],inhibition of avidin-FITCS binding to hydrogen peroxide treated cells,avidin [4],inhibited binding
same,"inhibition of avidin binding to double-stranded, methylene blue treated DNA",avidin [1],greatest inhibition
same,theoretical sensitivity of avidin binding (detectable amount),avidin [5]; assuming 100% binding of 8-oxodeoxyguanosine to the substratum,10^4 molecules
same,concentration at which avidin binding reached a maximum,avidin [5],10^-15 M
same,concentration at which binding of the monoclonal antibody to biotin reached a maximum,[6],10^-9 M
Cc1c(C)c2c(c(C)c1O)CCC(C)(CCCC(C)CCCC(C)CCCC(C)C)O2 (stereo not drawn) [α-tocopherol],"effect on avidin binding to UVA irradiated cells, longer periods of irradiation",IMR 32 cells [7]; 24 hours post-irradiation,not effective in reducing binding
same,"effect on avidin binding to UVA irradiated cells, short periods of irradiation",IMR 32 cells [7]; 24 hours post-irradiation,reduced the level of avidin binding
same,effect on avidin binding over the range of irradiation times studied,IMR 32 cells [7]; multiple range ANOVA,significantly (p=0.003) reduced the binding of avidin
same,effect on UVA-induced increase in MTT metabolism,IMR 32 cells [8],prevented
O=C(O)CCCC[C@@H]1SC[C@@H]2NC(=O)N[C@@H]21 [biotin],inhibition of avidin-FITCS binding to hydrogen peroxide treated cells,avidin [4],prevented binding
same,recovery of unbound biotin after incubation with avidin,"avidin [3]; biotin 100 μM, various concentrations of avidin, theoretical values assume 4 biotin molecules per avidin",very close to the theoretical values expected
Nc1nc2nc[nH]c2c(=O)[nH]1 [guanine],inhibition of avidin-FITCS binding to hydrogen peroxide treated cells,avidin [4],did not
same,"inhibition of avidin binding to double-stranded, methylene blue treated DNA",avidin [1],inhibited binding
Nc1nc2c(ncn2[C@H]2C[C@H](O)[C@@H](CO)O2)c(=O)[nH]1 [deoxyguanosine],concentration at which avidin binding reached a maximum,avidin [5],10^-6 M
same,concentration at which binding of the monoclonal antibody to biotin reached a maximum,[6],10^-9 M
